Measured values taken from BigSolDB 2.1.

Compound: CC(=O)[C@@]1(O)CC[C@H]2[C@@H]3CCC4=CC(=O)CC[C@]4(C)[C@H]3C(O)C[C@@]21C (stereo in doubt)
- solubility (mole fraction) (in DMF, 278.15 K): 0.0659
- solubility (mole fraction) (in DMF, 283.15 K): 0.0722
- solubility (mole fraction) (in DMF, 288.15 K): 0.0753
- solubility (mole fraction) (in DMF, 293.15 K): 0.0825
- solubility (mole fraction) (in DMF, 298.15 K): 0.0943
- solubility (mole fraction) (in DMF, 303.15 K): 0.1
- solubility (mole fraction) (in DMF, 308.15 K): 0.11
- solubility (mole fraction) (in DMF, 313.15 K): 0.119
- solubility (mole fraction) (in acetone, 278.15 K): 0.00679
- solubility (mole fraction) (in acetone, 283.15 K): 0.00761
- solubility (mole fraction) (in acetone, 288.15 K): 0.00804
- solubility (mole fraction) (in acetone, 293.15 K): 0.00859
- solubility (mole fraction) (in acetone, 298.15 K): 0.0095
- solubility (mole fraction) (in acetone, 303.15 K): 0.0106
- solubility (mole fraction) (in acetone, 308.15 K): 0.0115
- solubility (mole fraction) (in acetone, 313.15 K): 0.0123
- solubility (mole fraction) (in chloroform, 278.15 K): 0.0129
- solubility (mole fraction) (in chloroform, 283.15 K): 0.0134
- solubility (mole fraction) (in chloroform, 288.15 K): 0.0141
- solubility (mole fraction) (in chloroform, 293.15 K): 0.0146
- solubility (mole fraction) (in chloroform, 298.15 K): 0.0157
- solubility (mole fraction) (in chloroform, 303.15 K): 0.016
- solubility (mole fraction) (in chloroform, 308.15 K): 0.0172
- solubility (mole fraction) (in chloroform, 313.15 K): 0.0189
- solubility (mole fraction) (in methanol, 278.15 K): 0.0139
- solubility (mole fraction) (in methanol, 283.15 K): 0.0147
- solubility (mole fraction) (in methanol, 288.15 K): 0.0159
- solubility (mole fraction) (in methanol, 293.15 K): 0.0172
- solubility (mole fraction) (in methanol, 298.15 K): 0.0181
- solubility (mole fraction) (in methanol, 303.15 K): 0.0206
- solubility (mole fraction) (in methanol, 308.15 K): 0.0232
- solubility (mole fraction) (in methanol, 313.15 K): 0.0249
- solubility (mole fraction) (in n-propanol, 278.15 K): 0.00838
- solubility (mole fraction) (in n-propanol, 283.15 K): 0.00978
- solubility (mole fraction) (in n-propanol, 288.15 K): 0.0112
- solubility (mole fraction) (in n-propanol, 293.15 K): 0.0129
- solubility (mole fraction) (in n-propanol, 298.15 K): 0.0134
- solubility (mole fraction) (in n-propanol, 303.15 K): 0.0143
- solubility (mole fraction) (in n-propanol, 308.15 K): 0.0157
- solubility (mole fraction) (in n-propanol, 313.15 K): 0.0169
- solubility (mole fraction) (in water, 278.15 K): 1.39e-05
- solubility (mole fraction) (in water, 283.15 K): 1.73e-05
- solubility (mole fraction) (in water, 288.15 K): 2.08e-05
- solubility (mole fraction) (in water, 293.15 K): 2.43e-05
- solubility (mole fraction) (in water, 298.15 K): 2.77e-05
- solubility (mole fraction) (in water, 303.15 K): 3.47e-05
- solubility (mole fraction) (in water, 308.15 K): 3.64e-05
- solubility (mole fraction) (in water, 313.15 K): 3.98e-05
